We go through two compounds from patent publication US20150307554A1, “NTS-POLYPLEX NANOPARTICLES SYSTEM FOR GENE THERAPY OF CANCER” (priority 2011, published 2015).

The subject of experiment [1] is MDA-MB-231 cells. Put plainly: Internalization of NTS-polyplex via NTSR1 endocytosis with blocking assays, MDA-MB-231. The class given is cell-based, human. The conditions noted are these: NTS 1 μM, SR48692 500 nM, sucrose 0.45 M.
Procedure: (§1) The cytoplasm was stained with calcein AM (green). Cells were analyzed by confocal multi spectral imaging system TCS-SPE (Leica Mycrosystems, Wetzlar, Germany). The fluorescence was detected under the following conditions Ex/Em: 405/430 nm for the blue channel with UV light; 488/512-573 nm for the green channel with an argon laser; and 563/563-544 for the red channel with a Helium-Neon laser. We obtained 10 to 20 consecutive optical sections of 1 μm apart in the z series.
The subject of experiment [2] is MCF7 cells. Put plainly: Internalization of NTS-polyplex via NTSR1 endocytosis with blocking assays, MCF7. The class given is cell-based, human. The conditions noted are these: NTS 1 μM, SR48692 500 nM, sucrose 0.45 M.
Procedure: as §1

Each structure is given as a SMILES string.

Turning to `OC[C@H]1O[C@@](CO)(O[C@H]2O[C@H](CO)[C@@H](O)[C@H](O)[C@H]2O)[C@@H](O)[C@@H]1O` [sucrose], the “blocking of NTS-polyplex internalization” value in experiment [1] and in experiment [2] was “blocked” each time.
As for `COc1cccc(OC)c1-c1cc(C(=O)NC2(C(=O)O)C3CC4CC(C3)CC2C4)nn1-c1ccnc2cc(Cl)ccc12` (stereo not shown) [SR48692], the “blocking of NTS-polyplex internalization” value in experiment [1] and in experiment [2] was “prevented the entrance of NTS-polyplex” each time.
